Assay results from patent US12077503B2, “Substituted cyclic amides and their use as herbicides” (FMC CORPORATION, priority 2015, dated 2024).

How the values were obtained:
Assay type in all cases: in vivo
[1] = tested on: barnyardgrass (Echinochloa crus-galli); experiment: Test B flooded paddy test; settings: Flood
Procedure, shortened: (§1)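 Greenhouse paddy pots with 2-leaf stage plants received compound by direct addition to floodwater 3 cm deep, kept at that level. Scored visually at 13–15 d versus controls (0 no effect; 100 complete control).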

[2] = tested on: sedge, umbrella (small-flower umbrella sedge, Cyperus difformis); experiment: Test B flooded paddy test; settings: Flood
Procedure, shortened: as §1

[3] = tested on: rice (Oryra sativa); experiment: Test B flooded paddy test; settings: Flood
Procedure, shortened: as §1

[4] = tested on: ducksalad (Heteranthera limosa); experiment: Test B flooded paddy test; settings: Flood
Procedure, shortened: as §1

[5] = tested on: pigweed (Amaranthus retroflexus); experiment: Test A postemergence; settings: postemergence
Procedure, shortened: (§2)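 Seeded soil received test chemicals as a preemergence directed spray, and seedlings at one to two leaves, 2–10 cm tall, received them postemergence, in a non-phytotoxic, surfactant-containing solvent mixture. Pots were held in a greenhouse for approximately 10 d, then rated for injury from 0, no effect, to 100, complete control.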

[6] = tested on: corn (Zea mays); experiment: Test A postemergence; settings: postemergence
Procedure, shortened: as §2

[7] = tested on: ragweed (common ragweed, Ambrosia elatior); experiment: Test A postemergence; settings: postemergence
Procedure, shortened: as §2

[8] = tested on: ryegrass, Italian (Italian ryegrass, Lolium multiflorum); experiment: Test A postemergence; settings: postemergence
Procedure, shortened: as §2

[9] = tested on: Galium (catchweed bedstraw, Galium aparine); experiment: Test A postemergence; settings: postemergence
Procedure, shortened: as §2

[10] = tested on: barnyardgrass (Echinochloa crus-galli); experiment: Test A postemergence; settings: postemergence
Procedure, shortened: as §2

[11] = tested on: blackgrass (Alopecurus myosuroides); experiment: Test A postemergence; settings: postemergence
Procedure, shortened: as §2

[12] = tested on: wheat (Triticum aestivum); experiment: Test A postemergence; settings: postemergence
Procedure, shortened: as §2

[13] = tested on: Kochia (Kochia scoparia); experiment: Test A postemergence; settings: postemergence
Procedure, shortened: as §2

[14] = tested on: giant foxtail (Setaria faberii); experiment: Test A postemergence; settings: postemergence
Procedure, shortened: as §2

[15] = tested on: pigweed (Amaranthus retroflexus); experiment: Test A preemergence
[16] = tested on: ragweed (common ragweed, Ambrosia elatior); experiment: Test A preemergence
Procedure, shortened: as §2

[17] = tested on: ryegrass, Italian (Italian ryegrass, Lolium multiflorum); experiment: Test A preemergence
Procedure, shortened: as §2

[18] = tested on: barnyardgrass (Echinochloa crus-galli); experiment: Test A preemergence
Procedure, shortened: as §2

[19] = tested on: Kochia (Kochia scoparia); experiment: Test A preemergence
Procedure, shortened: as §2

[20] = tested on: giant foxtail (Setaria faberii); experiment: Test A preemergence
Procedure, shortened: as §2

[21] = 500 g ai/ha, 0 to 100 scale where 0 is no effect and 100 is complete control, 13 to 15 d
[22] = 125 g ai/ha, visual injury rating on 0 to 100 scale (0 no effect, 100 complete control), approx. 10 d
[23] = 500 g ai/ha, 0 to 100 scale, 0 no effect, 100 complete control
[24] = 125 g ai/ha, preemergence, 0 to 100 scale (0 no effect, 100 complete control)
[25] = Preemergence, 500 g ai/ha, visual injury approx. 10 d

## CN1C[C@H](c2cccc(OC(F)(F)C(F)F)c2)[C@@H](C(=O)Nc2ccccc2[S+](C)[O-])C1=O (some centres unmarked) [Compound 863]
[1]; Echinochloa crus-galli, 250 g ai/ha, scale of 0 to 100 where 0 is no effect and 100 is complete control, read-out: Barnyardgrass plant response rating
  pest or weed control at 250 g/ha: 0%
[2]; Cyperus difformis, 250 g ai/ha, scale of 0 to 100 where 0 is no effect and 100 is complete control, read-out: Sedge, Umbrella plant response rating
  pest or weed control at 250 g/ha: 0%
[3]; Oryza sativa, 250 g ai/ha, scale of 0 to 100 where 0 is no effect and 100 is complete control, read-out: Rice plant response rating
  pest or weed control at 250 g/ha: 0%
[4]; Heteranthera limosa, 250 g ai/ha, scale of 0 to 100 where 0 is no effect and 100 is complete control, read-out: Ducksalad plant response rating
  pest or weed control at 250 g/ha: 0%
[5]; Amaranthus retroflexus, post-emergence, 240 h, 125 g ai/ha, visual injury rating after approximately 10 d, read-out: Pigweed plant response rating (0 to 100 scale, 0 no effect, 100 complete control)
  pest or weed control at 125 g/ha: 50%
[6]; Zea mays, post-emergence, 240 h, 125 g ai/ha, visual injury rating after approximately 10 d, read-out: Corn plant response rating (0 to 100 scale, 0 no effect, 100 complete control)
  plant injury at 125 g/ha: 30%
[7]; Ambrosia artemisiifolia, post-emergence, 240 h, 125 g ai/ha, visual injury rating after approximately 10 d, read-out: Ragweed plant response rating (0 to 100 scale, 0 no effect, 100 complete control)
  pest or weed control at 125 g/ha: 0%
[8]; Lolium multiflorum, post-emergence, 240 h, 125 g ai/ha, visual injury rating after approximately 10 d, read-out: Ryegrass, Italian plant response rating (0 to 100 scale, 0 no effect, 100 complete control)
  pest or weed control at 125 g/ha: 0%
[9]; Galium, post-emergence, 240 h, 125 g ai/ha, visual injury rating after approximately 10 d, read-out: Galium plant response rating (0 to 100 scale, 0 no effect, 100 complete control)
  pest or weed control at 125 g/ha: 30%
[10]; Echinochloa crus-galli, post-emergence, 240 h, 125 g ai/ha, visual injury rating after approximately 10 d, read-out: Barnyardgrass plant response rating (0 to 100 scale, 0 no effect, 100 complete control)
  pest or weed control at 125 g/ha: 70%
[11]; Alopecurus myosuroides, post-emergence, 240 h, 125 g ai/ha, visual injury rating after approximately 10 d, read-out: Blackgrass plant response rating (0 to 100 scale, 0 no effect, 100 complete control)
  pest or weed control at 125 g/ha: 0%
[12]; Triticum aestivum, post-emergence, 240 h, 125 g ai/ha, visual injury rating after approximately 10 d, read-out: Wheat plant response rating (0 to 100 scale, 0 no effect, 100 complete control)
  plant injury at 125 g/ha: 0%
[13]; Bassia scoparia, post-emergence, 240 h, 125 g ai/ha, visual injury rating after approximately 10 d, read-out: Kochia plant response rating (0 to 100 scale, 0 no effect, 100 complete control)
  pest or weed control at 125 g/ha: 40%
[14]; Setaria faberi, post-emergence, 240 h, 125 g ai/ha, visual injury rating after approximately 10 d, read-out: Foxtail, Giant plant response rating (0 to 100 scale, 0 no effect, 100 complete control)
  pest or weed control at 125 g/ha: 20%
[15]; Amaranthus retroflexus, pre-emergence, 240 h, 125 g ai/ha, preemergence, 0 to 100 scale where 0 is no effect and 100 is complete control, read-out: Pigweed plant response rating
  pest or weed control at 125 g/ha: 70%
[16]; Ambrosia artemisiifolia, pre-emergence, 240 h, 125 g ai/ha, preemergence, 0 to 100 scale where 0 is no effect and 100 is complete control, read-out: Ragweed plant response rating
  pest or weed control at 125 g/ha: 0%
[17]; Lolium multiflorum, pre-emergence, 240 h, 125 g ai/ha, preemergence, 0 to 100 scale where 0 is no effect and 100 is complete control, read-out: Ryegrass, Italian plant response rating
  pest or weed control at 125 g/ha: 0%
[18]; Echinochloa crus-galli, pre-emergence, 240 h, 125 g ai/ha, preemergence, 0 to 100 scale where 0 is no effect and 100 is complete control, read-out: Barnyardgrass plant response rating
  pest or weed control at 125 g/ha: 50%
[19]; Bassia scoparia, pre-emergence, 240 h, 125 g ai/ha, preemergence, 0 to 100 scale where 0 is no effect and 100 is complete control, read-out: Kochia plant response rating
  pest or weed control at 125 g/ha: 80%
[20]; Setaria faberi, pre-emergence, 240 h, 125 g ai/ha, preemergence, 0 to 100 scale where 0 is no effect and 100 is complete control, read-out: Foxtail, Giant plant response rating
  pest or weed control at 125 g/ha: 90%

## COc1ccc(NC(=O)C2C(=O)NCC2c2cccc(OC(F)F)c2)c(F)c1 (centres unmarked) [Compound 425]
[1]; [21]
  Plant response rating, Barnyardgrass: 0
[2]; [21]
  Plant response rating, Sedge, Umbrella: 0
[3]; [21]
  Plant response rating, Rice: 0
[4]; [21]
  Plant response rating, Ducksalad: 30
[5]; [22]
  Pigweed plant response rating: 0
[5]; [23]
  Plant response rating, Pigweed: 0
[6]; [22]
  Corn plant response rating: 0
[6]; [23]
  Plant response rating, Corn: 0
[7]; [22]
  Ragweed plant response rating: 0
[7]; [23]
  Plant response rating, Ragweed: 0
[8]; [22]
  Ryegrass, Italian plant response rating: 0
[8]; [23]
  Plant response rating, Ryegrass, Italian: 0
[9]; [22]
  Galium plant response rating: 0
[9]; [23]
  Plant response rating, Galium: 0
[10]; [22]
  Barnyardgrass plant response rating: 20
[10]; [23]
  Plant response rating, Barnyardgrass: 30
[11]; [22]
  Blackgrass plant response rating: 0
[11]; [23]
  Plant response rating, Blackgrass: 0
[12]; [22]
  Wheat plant response rating: 0
[12]; [23]
  Plant response rating, Wheat: 0
[13]; [22]
  Kochia plant response rating: 0
[13]; [23]
  Plant response rating, Kochia: 0
[14]; [22]
  Foxtail, Giant plant response rating: 20
[14]; [23]
  Plant response rating, Foxtail, Giant: 30
[15]; [24]
  Plant response rating, Pigweed: 0
[15]; [25]
  Pigweed plant response rating (0 to 100 scale, 0 is no effect, 100 is complete control): 0
[16]; [24]
  Plant response rating, Ragweed: 0
[16]; [25]
  Ragweed plant response rating (0 to 100 scale, 0 is no effect, 100 is complete control): 0
[17]; [24]
  Plant response rating, Ryegrass, Italian: 0
[17]; [25]
  Ryegrass, Italian plant response rating (0 to 100 scale, 0 is no effect, 100 is complete control): 0
[18]; [24]
  Plant response rating, Barnyardgrass: 0
[18]; [25]
  Barnyardgrass plant response rating (0 to 100 scale, 0 is no effect, 100 is complete control): 20
[19]; [24]
  Plant response rating, Kochia: 0
[19]; [25]
  Kochia plant response rating (0 to 100 scale, 0 is no effect, 100 is complete control): 0
[20]; [24]
  Plant response rating, Foxtail, Giant: 40
[20]; [25]
  Foxtail, Giant plant response rating (0 to 100 scale, 0 is no effect, 100 is complete control): 70
